Measurements from US20240293413A1, “COMPOUND AND METHOD FOR TREATING CHEMOTHERAPY-RELATED GASTROINTESTINAL SIDE EFFECTS” (ONQUALITY PHARMACEUTICALS CHINA LTD., priority 2021, published 2024).

Test system: Chemotherapeutic agent-caused diarrhea models of Balb/c mice
Assay: Examples 1-229 (Table 3): oral CDK inhibitor, relief of diarrhea caused by a chemotherapeutic agent;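 note: percent of treated mice whose diarrhea grade fell below chemotherapy-group average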
Type: in vivo
Excerpt: Construction of mouse animal models: Chemotherapeutic agent-caused diarrhea models of Balb/c mice were constructed according to the administration mode and frequency of the chemotherapeutic agent as shown in Table 3.
Balb/c mice were fed for 1 week, and then divided into groups. The experiment was divided into a control group, a chemotherapeutic agent group, and a CDK inhibitor group, each of which comprised 10 mice, to perform the administration experiment, for which the administration dosage, mode, time and frequency were shown in Table 3. The control group: being intragastrically administered with the same solvent as that used in the CDK inhibitor group (the time was shown in Table 3), and then being injected/intragastrically administered with the same solvent as that used in the chemotherapeutic agent group (the administration mode was shown in Table 3): the chemotherapeutic agent group: being intragastrically administered with the same solvent as that used in the CDK inhibitor group (the time was shown in Table 3), and then being injected/intragastrically administered with the chemotherapeutic agent (the type, administration mode and dosage were shown in Table 3); the CDK inhibitor group: being intragastrically administered with the CDK inhibitor (the time was shown in Table 3), and then being administered with the chemotherapeutic agent (the mode and dosage were shown in Table 3).
The diarrhea grading of mice was observed and recorded every day.

NS(=O)(=O)c1ccc(S(=O)(=O)Nc2cccc3c(Cl)c[nH]c23)cc1 [Indisulam]
Relative remission rate (%) (Example 74, Oxaliplatin intraperitoneal injection 20 mg/kg single, CDK inhibitor oral 175 mg/kg single 4 h before, cycle 8 days): 20% | Relative remission rate (%) (Example 190, Gemcitabine (GEM) intraperitoneal injection 120 mg/kg single, CDK inhibitor oral 175 mg/kg single, 4 h before, 8 days): 40%

COCc1cc(C(=O)Nc2cc([C@H]3CC[C@@H](OC(=O)NC(C)C)C3)[nH]n2)n(C)n1 [PF-07104091]
Relative remission rate (%) (Example 161, Docetaxel (DTX) intraperitoneal injection 10 mg/kg single, CDK inhibitor oral 50 mg/kg single 8 h before, cycle 8 days): 40%

COc1cc(F)ccc1-c1ncnc(Nc2cccc(C[S@](C)(=N)=O)c2)n1 [Atuveciclib]
Relative remission rate (%) (Example 158, Docetaxel (DTX) intraperitoneal injection 10 mg/kg single, CDK inhibitor oral 50 mg/kg single 10 h before, cycle 8 days): 30%

O=C1Nc2ccc([N+](=O)[O-])cc2/C1=C1/Nc2ccc(O)cc2/C1=N\O [AGM-130]
Relative remission rate (%) (Example 39, Fluorouracil (5-Fu) intraperitoneal injection 125 mg/kg single, CDK inhibitor oral 80 mg/kg single 12 h before, cycle 10 days): 30%

CCN1CCN(Cc2ccc(Nc3ncc(F)c(-c4cc(F)c5nc6n(c5c4)C(C)CCC6)n3)nc2)CC1 (centres unmarked) [BPI-16350]
Relative remission rate (%) (Example 30, Fluorouracil (5-Fu) intraperitoneal injection 125 mg/kg single, CDK inhibitor oral 150 mg/kg single 6 h before, cycle 10 days): 80% | Relative remission rate (%) (Example 71, Oxaliplatin intraperitoneal injection 20 mg/kg single, CDK inhibitor oral 150 mg/kg single 4 h before, cycle 8 days): 40% | Relative remission rate (%) (Example 196, Gemcitabine 60 mg/kg and paclitaxel 10 mg/kg intraperitoneal injection single, CDK inhibitor oral 150 mg/kg single, 2 h before, 8 days): 50%

COc1cc(OC)c(/C=C/S(=O)(=O)Cc2ccc(OC)c(NCC(=O)O)c2)c(OC)c1 [Rigosertib]
Relative remission rate (%) (Example 116, Irinotecan (CPT-11) intraperitoneal injection 240 mg/kg single, CDK inhibitor oral 250 mg/kg single 4 h before, cycle 7 days): 20% | Relative remission rate (%) (Example 189, Gemcitabine (GEM) intraperitoneal injection 120 mg/kg single, CDK inhibitor oral 250 mg/kg single, 6 h before, 8 days): 30% | Relative remission rate (%) (Example 214, Fluorouracil 100 mg/kg and irinotecan 200 mg/kg intravenous injection single, CDK inhibitor oral 250 mg/kg single, 2 h before, 10 days): 20%

CN1CC[C@H](c2c(OP(=O)(O)O)cc(O)c3c(=O)cc(-c4ccccc4Cl)oc23)[C@H](O)C1 [TP-1287]
Relative remission rate (%) (Example 37, Fluorouracil (5-Fu) intraperitoneal injection 125 mg/kg single, CDK inhibitor oral 10 mg/kg single 10 h before, cycle 10 days): 40%

C[C@H]1CC[C@H](n2c3cnccc3c3cnc(Nc4ccc5c(n4)CCN(C(=O)CO)C5)nc32)CC1 [AMG925]
Relative remission rate (%) (Example 219, Fluorouracil 100 mg/kg and oxaliplatin 10 mg/kg intraperitoneal injection single, CDK inhibitor oral 150 mg/kg single, 2 h before, 10 days): 60%

CC[C@H](Nc1nc(NCc2cnc(C)cc2C)c2ncn(C(C)C)c2n1)[C@@H](C)O [Fadraciclib]
Relative remission rate (%) (Example 122, Irinotecan (CPT-11) intraperitoneal injection 240 mg/kg single, CDK inhibitor oral 80 mg/kg single 8 h before, cycle 7 days): 30% | Relative remission rate (%) (Example 159, Docetaxel (DTX) intraperitoneal injection 10 mg/kg single, CDK inhibitor oral 80 mg/kg single 12 h before, cycle 8 days): 20%

Cc1c(Br)c(Br)c2c3c1nc(N1CCNCC1)n3CCC2 [SEL120]
Relative remission rate (%) (Example 75, Oxaliplatin intraperitoneal injection 20 mg/kg single, CDK inhibitor oral 80 mg/kg single 8 h before, cycle 8 days): 40% | Relative remission rate (%) (Example 120, Irinotecan (CPT-11) intraperitoneal injection 240 mg/kg single, CDK inhibitor oral 80 mg/kg single 8 h before, cycle 7 days): 40%

CN1C/C=C/CCOc2cccc(c2)-c2ccnc(n2)Nc2cccc(c2)C1 [Zotiraciclib]
Relative remission rate (%) (Example 33, Fluorouracil (5-Fu) intraperitoneal injection 125 mg/kg single, CDK inhibitor oral 100 mg/kg single 4 h before, cycle 10 days): 20% | Relative remission rate (%) (Example 152, Docetaxel (DTX) intraperitoneal injection 10 mg/kg single, CDK inhibitor oral 100 mg/kg single 8 h before, cycle 8 days): 30%

O=C(NC1CCNCC1)c1[nH]ncc1NC(=O)c1c(Cl)cccc1Cl [AT-7519]
Relative remission rate (%) (Example 205, Gemcitabine 60 mg/kg and paclitaxel 10 mg/kg intravenous injection single, CDK inhibitor oral 50 mg/kg single, 4 h before, 8 days): 20%

CN1CCN(C2CCN(c3ccc(Nc4ncc5sc(C(=O)N(C)C)c(C6CCCC6)c5n4)nc3)CC2)CC1 [FCN437]
Relative remission rate (%) (Example 147, Docetaxel (DTX) intraperitoneal injection 10 mg/kg single, CDK inhibitor oral 90 mg/kg single 8 h before, cycle 8 days): 60% | Relative remission rate (%) (Example 206, Carboplatin 5 mg/kg and paclitaxel 10 mg/kg intraperitoneal injection single, CDK inhibitor oral 90 mg/kg single, 4 h before, 10 days): 40%

CN1CC[C@H](c2c(O)cc(O)c3c(=O)cc(-c4ccccc4Cl)oc23)[C@H](O)C1 [Alvocidib]
Relative remission rate (%) (Example 119, Irinotecan (CPT-11) intraperitoneal injection 240 mg/kg single, CDK inhibitor oral 70 mg/kg single 6 h before, cycle 7 days): 40% | Relative remission rate (%) (Example 201, Gemcitabine 60 mg/kg and paclitaxel 10 mg/kg intravenous injection single, CDK inhibitor oral 70 mg/kg single, 6 h before, 8 days): 50%

CN1CCN(C(=O)c2ccc3cc(CCNc4ncnc5ccc(C#N)cc45)ccc3c2)CC1 [BCD-115]
Relative remission rate (%) (Example 157, Docetaxel (DTX) intraperitoneal injection 10 mg/kg single, CDK inhibitor oral 80 mg/kg single 10 h before, cycle 8 days): 40% | Relative remission rate (%) (Example 217, Fluorouracil 100 mg/kg and irinotecan 200 mg/kg intravenous injection single, CDK inhibitor oral 80 mg/kg single, 4 h before, 10 days): 20%

COCCN1CCN(Cc2ccc(-c3n[nH]c4c3C(=O)c3c(NC(=O)NN5CCOCC5)cccc3-4)cc2)CC1 [RGB-286638]
Relative remission rate (%) (Example 124, Irinotecan (CPT-11) intraperitoneal injection 240 mg/kg single, CDK inhibitor oral 100 mg/kg single 12 h before, cycle 7 days): 60% | Relative remission rate (%) (Example 130, Irinotecan (CPT-11) intravenous injection 200 mg/kg single, CDK inhibitor oral 100 mg/kg single 8 h before, cycle 7 days): 50%

CC1=Nc2c(F)cc(-c3nc(Nc4ccc(C5CCN(C)CC5)cn4)ncc3F)cc2C12CCCC2 [GLR2007]
Relative remission rate (%) (Example 155, Docetaxel (DTX) intraperitoneal 10 mg/kg single, CDK inhibitor oral 60 mg/kg single 8 h before, cycle 8 days): 50% | Relative remission rate (%) (Example 168, Docetaxel (DTX) intravenous injection 10 mg/kg single, CDK inhibitor oral 60 mg/kg single 4 h before, cycle 8 days): 30% | Relative remission rate (%) (Example 191, Gemcitabine (GEM) intraperitoneal injection 120 mg/kg single, CDK inhibitor oral 60 mg/kg single, 10 h before, 8 days): 50%

CC(C)CC(=O)Nc1[nH]nc2c1CN(C(=O)C1CCN(C)CC1)C2(C)C [PHA-793887]
Relative remission rate (%) (Example 160, Docetaxel (DTX) intraperitoneal injection 10 mg/kg single, CDK inhibitor oral 70 mg/kg single 4 h before, cycle 8 days): 30%

COc1ccc(F)c(F)c1C(=O)c1cnc(NC2CCN(S(C)(=O)=O)CC2)nc1N [RO4584820]
Relative remission rate (%) (Example 218, Fluorouracil 100 mg/kg and irinotecan 200 mg/kg intravenous injection single, CDK inhibitor oral 70 mg/kg single, 4 h before, 10 days): 50%

CN1CCN(c2ccc(Nc3ncc4cc(C#N)c(=O)n(C5CCCC5)c4n3)cc2)CC1 [ON123300]
Relative remission rate (%) (Example 121, Irinotecan (CPT-11) intraperitoneal injection 240 mg/kg single, CDK inhibitor oral 250 mg/kg single 8 h before, cycle 7 days): 60% | Relative remission rate (%) (Example 202, Gemcitabine 60 mg/kg and paclitaxel 10 mg/kg intraperitoneal injection single, CDK inhibitor oral 250 mg/kg single, 2 h before, 8 days): 50%

CC(=O)c1c(C)c2cnc(N[C@@H]3CCOC[C@H]3O)cc2n(C2CCCC2)c1=O [PF-06842874]
Relative remission rate (%) (Example 210, Carboplatin 5 mg/kg and paclitaxel 10 mg/kg intraperitoneal injection single, CDK inhibitor oral 80 mg/kg single, 6 h before, 10 days): 40% | Relative remission rate (%) (Example 222, Fluorouracil 100 mg/kg and oxaliplatin 10 mg/kg intraperitoneal injection single, CDK inhibitor oral 80 mg/kg single, 4 h before, 10 days): 30%

CC(=O)Nc1ccc([C@H](C)C(=O)Nc2ncc(C(C)C)s2)cc1 [PHA-690509]
Relative remission rate (%) (Example 123, Irinotecan (CPT-11) intraperitoneal injection 240 mg/kg single, CDK inhibitor oral 60 mg/kg single 12 h before, cycle 7 days): 40%

CC(=O)c1c(C)c2cnc(Nc3ccc(C4CCN(CCS(C)(=O)=O)CC4)cn3)nc2n(C2CCCC2)c1=O [BEBT-209]
Relative remission rate (%) (Example 187, Gemcitabine (GEM) intraperitoneal injection 120 mg/kg single, CDK inhibitor oral 80 mg/kg single, 4 h before, 8 days): 40% | Relative remission rate (%) (Example 207, Carboplatin 5 mg/kg and paclitaxel 10 mg/kg intraperitoneal injection single, CDK inhibitor oral 80 mg/kg single, 4 h before, 10 days): 50%

CC(C)c1c2cc(-c3nc(Nc4ccc(N5CCNCC5)cn4)ncc3F)ccc2nn1C [TQB-3616]
Relative remission rate (%) (Example 32, Fluorouracil (5-Fu) intraperitoneal injection 125 mg/kg single, CDK inhibitor oral 70 mg/kg single 4 h before, cycle 10 days): 30% | Relative remission rate (%) (Example 148, Docetaxel (DTX) intraperitoneal injection 10 mg/kg single, CDK inhibitor oral 70 mg/kg single 4 h before, cycle 8 days): 50% | Relative remission rate (%) (Example 197, Gemcitabine 60 mg/kg and paclitaxel 10 mg/kg intravenous injection single, CDK inhibitor oral 70 mg/kg single, 4 h before, 8 days): 60% | Relative remission rate (%) (Example 220, Fluorouracil 100 mg/kg and oxaliplatin 10 mg/kg intraperitoneal injection single, CDK inhibitor oral 70 mg/kg single, 6 h before, 10 days): 60%

CN1CC[C@@H](c2c(O)cc(O)c3c(=O)cc(-c4ccc(C(F)(F)F)cc4Cl)oc23)[C@@H]1CO [Voruciclib]
Relative remission rate (%) (Example 76, Oxaliplatin intraperitoneal injection 20 mg/kg single, CDK inhibitor oral 250 mg/kg single 4 h before, cycle 8 days): 70% | Relative remission rate (%) (Example 203, Gemcitabine 60 mg/kg and paclitaxel 10 mg/kg intravenous injection single, CDK inhibitor oral 250 mg/kg single, 8 h before, 8 days): 80%

COc1cc(F)ccc1-c1cc(Nc2cc(CS(C)(=N)=O)ccn2)ncc1F (centres unmarked) [BAY-1251152]
Relative remission rate (%) (Example 38, Fluorouracil (5-Fu) intraperitoneal injection 125 mg/kg single, CDK inhibitor oral 60 mg/kg single 8 h before, cycle 10 days): 20%
